According to US9682056B2, “Oleacein for treating or preventing diseases resulting from atherosclerotic plaques” (Warszawski Uniwersytet Medyczny, priority 2012, dated 2017):

How the values were obtained:
[1] = test system: interleukin 10 (IL-10) production; assay: IL-10 production by atherosclerotic plaque, ELISA; format: cell-based, human; conditions: IL-10 amount per atherosclerotic plaque mass, % of stimulated control
From the text: The effects of olacein on interleukin 10 (IL-10) production were investigated with the use of the ELISA immunochemical method (R&D system). The IL-10 amounts were converted into the atherosclerotic plaque mass and, subsequently, determined in % compared to the stimulated control.

[2] = test system: metalloproteinase-9 (MMP-9) production; assay: MMP-9 production by LPS-stimulated atherosclerotic plaque from carotid artery, ELISA; format: cell-based; conditions: Homo sapiens; plaques (n=15) from endoartherectomy patients; LPS 1 μg/ml stimulation; 24 hours at 37° C.; average±standard error; read-out: IC50, inhibition of MMP-9 production
Experimental: Atherosclerotic plaques (n=15) were obtained from patients subjected to endoartherectomy. The plaque obtained was divided into two portions, which were then incubated in buffered physiological saline (control), or buffered physiological saline in the presence of oleacein at the concentrations of 5, 10 and 20 μM for 24 hours at a temperature of 37° C. following prior stimulation with a solution of lipopolysaccharide at a concentration of 1 μg/ml. The unstimulated control consisted of physiological saline, in which the plaque was incubated for […]. The effect of oleacein on metalloproteinase-9 (MMP-9) production was determined using immunochemical ELISA (R&D System). The amount of MMP-9 (ng/ml) was calculated per mass of atherosclerotic plaque, and then described in terms of percentage in comparison to the stimulated control.

In the case of `C/C=C(/C=O)[C@@H](CC=O)CC(=O)OCCc1ccc(O)c(O)c1` [oleacein], the “IL-10 production compared to the stimulated control” value [1] is reported as “about 267.1±61.5%” and the IC50 [2] is reported as 9.07 ± 1.2 µM.
